The values below come from patent publication US20220282304A1, “SAME-SAMPLE ANTIBIOTIC SUSCEPTIBILITY TEST AND RELATED COMPOSITIONS, METHODS AND SYSTEMS” (CALIFORNIA INSTITUTE OF TECHNOLOGY, priority 2021, published 2022).

The assay deals with Escherichia coli isolate. Kind of assay: Digital same-sample filtration AST, one treated and one concurrent reference condition (Example 5). The assay is classed as cell-based. As to conditions: 1.0 μg/mL ETP; for lysed cells detected: all detected treated cells lysed. The procedure:
The inoculum was small enough that no detectable difference in the sample's optical density at 600 mm (OD600) was detectable by a spectrophotometer with a sensitivity of 0.01 absorbance units. After an incubation at 37° C., the media became turbid with an OD600 of 0.18 absorbance units after 3 hours of incubation.
In this experiment, the number and volume of sample partitions was restricted, for logistical reasons, to 96 partitions 10 μL, in volume, specifically the wells of a 96-well plate. A goal was chosen of having a >98% chance of ending up with at least 48 empty partitions. When all partitions are the same volume, the following formula relates the expected number of empty partitions, the partition volume, and the density of cells.
N is the total number of partitions, n is the number of empty partitions, V is the partition volume, D is the density of cells, and t is a threshold probability chosen by the practitioner. Thus, in order to achieve digital sample partitioning with the available 96-well plate, the contrived clinical specimen was diluted to a cell density of 0.0375 cells/μL. Each 10 μL sample of the specimen would then contain 0.375 cells on average.
To begin the AST protocol, the contrived clinical specimen was physically split into the 96 partitions by transferring 10 μL of the sample, in 96 separate transfers (actually 12 transfers with a multichannel pipette), to 96 wells of a microtiter plate. Each well contained 15 μL of Mueller-Hinton Broth (MHB) growth media. Half of the wells (48) contained 0 μg/mL of dissolved ETP antibiotic and served as reference condition antibiotic exposures. The other half of the wells contained 1.67 μg/mL of ETP (for a final concentration of 1.0 μg/mL) and served as 48 treated condition antibiotic exposures. The 96 antibiotic exposures were incubated at 37° C. for 70 minutes.
The entire volume of each antibiotic exposure was transferred to a Millipore® 96-well sterile polystyrene MultiScreenHTS® filter plate (Millipore-Sigma MSGVS2210). Each well of the filter plate contained a hydrophilic polyvinylidene fluoride (PVDF) filter membrane with a 0.22 μm pore size. The antibiotic exposures were centrifuged at 2200 relative centrifugal force to speed the passage of the antibiotic exposure through the filter and into 96 collecting vessels. The collected fluid was called the “filtrate.”
50 μL of fresh MHB media was spun through the filters after the first centrifugation (above) to wash away residual extracellular nucleic acids present in the fluid wetting the filters. This wash fluid is not collected with the filtrates.
10 μL of each of the filtrates was added to and mixed with 10 μL of Lucigen DNA Extraction Buffer, heated to 65° C. for 6 minutes, then heated to 98° C. for 4 minutes.
20 μL of DNA Extraction Buffer was placed on top of the filters. The filter plate was heated to 65° C. for 6 minutes, shaking at 700 rpm, on a ThermoMixer® flat surface heating block. Then, the filter plate was taped to a clean 96-well polypropylene microtiter plate and centrifuged at 2000 rcf for 2 minutes. The DNA Extraction Buffer fluid that flowed through the filter was collected in the microtiter plate below the filter plate. Next, the microtiter plate was heated to 98° C. for 4 minutes inside a BioRad thermocycler. These collected and heated fluid volumes are termed the “lysates” which comprise intracellular nucleic acid.
Separately, for each of the 96 extracted filtrates and for each of the 96 extracted lysates, 1.00 μL of the extracted filtrate was mixed with 0.02 μL of 3 U/mL Lucigen® RapiDxFire thermostable reverse transcriptase, 0.2 μL of Lucigen® RapiDxFire 10× thermostable buffer, 0.1 μL of 10 mM deoxyribonucleic acid nucleotides, 0.6 μL of deionized water, and 0.08 μL of a 10 μM aqueous solution of DNA primer, according to manufacturer's instructions, to create a reverse transcription reaction with a total volume of 2.0 μL. […]

Regarding `C[C@@H](O)[C@H]1C(=O)N2C(C(=O)O)=C(S[C@@H]3CN[C@H](C(=O)Nc4cccc(C(=O)O)c4)C3)[C@H](C)[C@H]12` [ETP, ertapenem], the “percent extracellular of detected antibiotic-treated cells (lysis)” value was determined as 100% (70 minutes 37° C., qPCR 23S rRNA, 96 partitions) and 100% (70 minutes, ddPCR 23S rRNA, 56 of the 96 partitions). Also, the “susceptibility call (Fisher's exact test)” value (70 minutes, ddPCR) was “susceptible” and the “susceptibility call (Fisher's exact test)” value (70 minutes, qPCR) is given as “susceptible”. The lysed cells detected reads like this: (70 minutes, ddPCR, 56 of the 96 partitions) 9; (70 minutes, qPCR, of the 96 partitions) 19.
